Legend:
[1] = test system: nuclear YAP in brain neurons of 5×FAD mice; test: Amounts of nuclear YAP in brain neurons by immunohistochemical staining; assay type: in vivo, mouse; conditions: 5×FAD mice given at 1 month of age, measured at 6 months of age, vs 5×FAD mice without administration (FIG. 10)
Method: (§1) Brain tissues were excised from the test subjects or the AD mouse models and fixed in a 4% PFA (paraformaldehyde) solution. Then, 5 µm thick paraffin sections were prepared using a microtome (manufactured by Yamato Kohki Industrial Co., Ltd.). […] Fluorescence signals derived from each primary antibody were detected using a fluorescence microscope (IX70, manufactured by Olympus Corp.) or a confocal laser scanning microscope (FV1200, manufactured by Olympus Corp.) to obtain images (specifically, YAP images, phosphorylated LATS1 serine 909 (Ser909) [pLATS1] images, images of the detected DAPI fluorescence signals derived from the cells nuclei (DAPI images), and overlaid images thereof (merged images). In the DAPI images, cells having the deformed and/or shrunk cell nuclei were evaluated as necrotic cells, and the numbers of necrotic cells in 30 fields of view (143 μm×143 μm) were measured to calculate a necrotic cell number per field of view (see the ordinates of FIGS. 5A to 5C). […]

[2] = test system: extracellular amyloid β in brain tissues of 5×FAD mice; test: Extracellular amyloid β levels of brain tissues by immunohistochemical staining; assay type: in vivo, mouse; conditions: 5×FAD mice given at 1 month of age, measured at 6 months of age, vs 5×FAD mice without administration (FIG. 11)
Method: as §1

[3] = test system: ER in brain neurons of 5×FAD mice; test: In vivo imaging of ER volumes in brain neurons (ER-Tracker Red); set-up: species or system mouse; conditions: 5×FAD mice given at 1 month of age, measured at 6 months of age (FIGS. 13 and 15)
Method: The skull bones on RSD surface of normal mice (non-transgenic B6/SJL mice) or 5×FAD mice were removed using a high-speed microdrill. 1 μL of a liquid containing 100 nM amyloid-binding substance BTA1 (2-(4′-(methylamino)phenyl) benzothiazole, manufactured by Sigma-Aldrich Co. LLC) and 100 nM ER-Tracker Red (E34250, manufactured by Thermo
Fisher Scientific Inc.) was injected to RSD in the presence of 1% isoflurane (anesthetic). 4 hours later, ER-Tracker Red was imaged using an upright microscope (BX61WI, manufactured by Olympus Corp.) and a scanning laser microscope system FV1000MPE2 (manufactured by Olympus Corp.) equipped with an immersion objective lens (XLPlanN25xW, numerical aperture: 1.05) and a pulse laser (MaiTaiHP DeepSee, manufactured by Spectra-Physics, Inc.) to obtain images of detected BTA1 fluorescence signals (BTA1 images) and images of detected ER-Tracker Red fluorescence signals (ER-Tracker images). The fluorescence signal volumes of ER-Tracker Red (i.e., volumes of ER) were measured. […]

[4] = test system: pSer46-MARCKS in brain neurons of 5×FAD mice; test: pSer46-MARCKS levels of brain neurons by immunohistochemical staining; assay type: in vivo, mouse; conditions: 5×FAD mice given at 1 month of age, measured at 6 months of age, vs 5×FAD mice without administration (FIG. 16)
5×FAD mice = test: Cognitive function analysis, Y-shaped maze score of alternation behavior; assay type: in vivo, mouse; conditions: tested at 6 months of age
Method: The administration of AAV-YAPΔC-ins61 or AAV-NINS (titer: 1×10^10 vector genomes/mL each, 1 μL) to mouse RSD (retrosplenial cortex) (depth of −2.0 mm from the bregma and 0.6 mm mediolaterally) and the subarachnoidal administration of S1P (40 nM, 0.15 μL/hr; manufactured by Sigma-Aldrich Co. LLC) or control artificial cerebrospinal fluid (aCSF) (0.15 μL/hr; manufactured by Alzet Osmotic Pressures) to the mice were performed according to the method described in the document “Yang, G. et al., Nat Protoc 5, 201-208 (2010)”. The administration of AAV-YAPΔC-ins61 or AAV-NINS to the mice was performed at 1 or 5 months of age. The administration of S1P to the mice was continuously performed for a period from 1 to 6 months of age or for a period from 5 to 6 months of age.
The normal mice (non-transgenic B6/SJL mice) or the 5×FAD mice given AAV-YAPΔC-ins61 or AAV-NINS, or S1P were tested for their exploratory behavior when aged 6 months using a Y-shaped maze (manufactured by O'HARA & Co., Ltd.) in which three arms of the same size were joined at […]
A value obtained by dividing the number of movements from the immediately preceding arm where the mouse stayed to an arm different from the immediately preceding arm where the mouse stayed by the number of movements in the arms was calculated as the rate of spontaneous alternation (score of alternation behavior; see FIG. 14).

CCCCCCCCCCCCC/C=C/[C@@H](O)[C@@H](N)COP(=O)(O)O [SiP, sphingosine 1-phosphate]
amounts of nuclear YAP in brain neurons [1]: increased and/or restored to the levels of normal mice | extracellular amyloid β levels of brain tissues [2]: lower | ER dilation and instability in brain neurons [3]: significantly resolved ER dilation and instability | pSer46-MARCKS levels of brain neurons [4]: decreased to the levels of normal mice | cognitive functions (score of alternation behavior, Y-shaped maze) (5×FAD mice; 5×FAD mice given at 1 month of age, vs 5×FAD mice without administration (FIGS. 17A and 17B)): equivalent to the ones of normal mice | cognitive functions (score of alternation behavior, Y-shaped maze) (5×FAD mice; 5×FAD mice given at 5 months of age, vs 5×FAD mice without administration (FIGS. 17C and 17D)): equivalent to the ones of normal mice

From patent US20220296620A1, “AGENT FOR PREVENTING OR TREATING MILD COGNITIVE IMPAIRMENT” (NATIONAL UNIVERSITY CORPORATION TOKYO MEDICAL AND DENTAL …, priority 2019, published 2022)
